Data reported in article PMC8456368 (Bioorganic & medicinal chemistry, 2021).
pIC50: −log10 of the molar value.

Legend:
[1] = target: T1, GST-MKK3 and full-length VF-MYC interaction (Homo sapiens, UniProt P46734); test: dose-response cell lysate-based TR-FRET assay; format: binding; details: for inhibition of MKK3-MYC PPI in dose-response TR-FRET: up to 100 µM compound
T1 sequence (P46734 1-347): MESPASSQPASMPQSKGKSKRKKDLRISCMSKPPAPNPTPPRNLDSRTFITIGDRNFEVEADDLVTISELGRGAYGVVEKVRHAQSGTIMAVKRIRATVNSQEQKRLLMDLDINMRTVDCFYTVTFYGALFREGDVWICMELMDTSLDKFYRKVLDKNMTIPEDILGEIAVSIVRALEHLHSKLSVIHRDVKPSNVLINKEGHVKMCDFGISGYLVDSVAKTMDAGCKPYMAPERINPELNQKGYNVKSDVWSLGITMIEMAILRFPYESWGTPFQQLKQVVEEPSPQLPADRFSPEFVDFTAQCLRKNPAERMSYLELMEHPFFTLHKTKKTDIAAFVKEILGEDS

[2] = tested on: MYC, CDK4 and PD-L1 level in HCT116 cells; test: Western blot of MYC and MYC-target genes; format: cell-based; details: RG108 up to 10 µM
[3] = tested on: MYC transcriptional activity in HCT116 cells; test: luciferase-based MYC reporter assay; format: cell-based; details: HCT116 cells expressing VF-MKK3; 0.5 to 5 µM, 12 hours
[4] = tested on: MYC level in MDA-MB-468 cells; test: Western blot of MYC level; format: cell-based; details: increasing concentration
MKK3-p38 PPI = target: T2, MKK3-p38 PPI (Homo sapiens, UniProt P46734); test: GST pull-down PPI inhibition assay, compound-treated HEK293T lysates; format: binding; details: up to 50 µM
T2 sequence (P46734 1-347): T1 sequence (P46734 1-347)

MKK3-MYC PPI = target: T3, MKK3-MYC PPI (Homo sapiens, UniProt P46734); test: as above; format: binding; details: lysates treated with 50 µM
T3 sequence (P46734 1-347): T1 sequence (P46734 1-347)

[5] = target: T4, GST-MKK3 association with endogenous MYC in HCT116 cells (Homo sapiens, UniProt P46734); test: GST pull-down from compound-treated cells; format: cell-based; details: HCT116 cells treated with increased concentration
T4 sequence (P46734 1-347): T1 sequence (P46734 1-347)

[6] = tested on: phosphorylation of MKK3 substrate p38 in HEK293T cells; test: p38 phosphorylation in compound-treated cells; format: cell-based; details: HEK293T cells incubated with compound
[7] = tested on: MYC transcriptional activity in MDA-MB-468 cells; test: luciferase-based MYC reporter assay; format: cell-based; details: MDA-MB-468 cells expressing VF-MKK3; 0.5 to 5 µM, 12 hours
MYC-MAX PPI = MYC-MAX PPI (Homo sapiens, UniProt P01106); test: GST pull-down PPI inhibition assay, compound-treated HEK293T lysates; format: binding; details: up to 50 µM
Renilla luciferase = test: luciferase interference control; format: cell-based; details: cells treated with 10 µM, vs DMSO control

MYC-MAX PPI, sequence (P01106 16-454): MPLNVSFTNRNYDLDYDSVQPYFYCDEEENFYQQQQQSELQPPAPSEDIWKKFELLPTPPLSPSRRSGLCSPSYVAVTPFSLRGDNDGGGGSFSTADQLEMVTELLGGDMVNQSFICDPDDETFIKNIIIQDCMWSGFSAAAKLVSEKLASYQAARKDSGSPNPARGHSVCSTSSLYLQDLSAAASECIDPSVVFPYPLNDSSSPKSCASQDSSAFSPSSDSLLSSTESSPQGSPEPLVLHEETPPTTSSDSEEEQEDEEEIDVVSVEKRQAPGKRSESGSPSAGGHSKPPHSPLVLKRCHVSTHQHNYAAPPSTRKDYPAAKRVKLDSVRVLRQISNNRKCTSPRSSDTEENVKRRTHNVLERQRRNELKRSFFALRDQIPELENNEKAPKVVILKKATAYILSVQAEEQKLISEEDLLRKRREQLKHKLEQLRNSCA

Row | Structure (SMILES) | inhibition of MKK3-MYC PPI in dose-response TR-FRET [1] | level of MYC and MYC-target genes (CDK4, PD-L1) [2] | MKK3-induced MYC transcriptional activity, reporter assay [3] | pIC50 [1] | MYC level [4] | suppression of MKK3-p38 PPI in GST pull-down (MKK3-p38 PPI) | inhibition of MKK3-MYC PPI in GST pull-down (MKK3-MYC PPI) | association of GST-MKK3 with endogenous MYC [5] | phosphorylation of MKK3 substrate p38 [6] | MKK3-induced MYC transcriptional activity, reporter assay [7] | suppression of MYC-MAX PPI in GST pull-down (MYC-MAX PPI) | Renilla luciferase activity (Renilla luciferase)
1 | Cc1cc2c(C(C)C)c(O)c(O)c(C=O)c2c(O)c1-c1c(C)cc2c(C(C)C)c(O)c(O)c(C=O)c2c1O [AT101, (−)-1,1’,6,6’,7,7’-Hexahydroxy-3,3’-dimethyl-5,5’-bis(1-methylethyl)-[2,2’-binaphthalene]-8,8’dicarboxaldehyde] | did not demonstrate detectable inhibition | – | – | – | – | – | – | – | – | – | – | –
2 | O=C(O)[C@H](Cc1c[nH]c2ccccc12)N1C(=O)c2ccccc2C1=O [RG108] | does not interfere | did not suppress | not suppressed | – | – | – | – | – | – | – | – | –
3 | Cc1cc(Nc2ccc(NC(=O)c3ccc(Nc4ccnc5ccccc45)cc3)cc2)nc(N)n1 [SGI-1027, N-[4-[(2-Amino-6-methylpyrimidin-4-yl)amino]phenyl]-4-(quinolin-4-ylamino)benzamide] | – | substantial decrease | diminished | 5.10 | decreased proportionally | did not observe a significant suppression | confirmed the inhibition | decreased association | did not decrease | diminished | did not observe a significant suppression | did not observe a decrease
